Measured values taken from PubChem BioAssay (NCI).
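Assay format: 96-well plates, 48-hour exposure. TGI marks complete inhibition of growth.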

Experiments:
Test in all cases: NCI anticancer screen, dose series, 48 h
[1] = test system: A498 renal
[2] = test system: HL-60(TB) leukemia
[3] = test system: HOP-62 NSCLC
[4] = test system: NCI-H226 lung
[5] = test system: NCI/ADR-RES ovarian
[6] = test system: OVCAR-5 ovarian
[7] = test system: SF-295 CNS
[8] = test system: SNB-75 CNS
[9] = test system: TK-10 renal
[10] = test system: RXF 393 renal

C=C(C)COC1CCCCO1 (stereo not drawn)
TGI [1]: > 100 µM
TGI [2]: > 100 µM
TGI [3]: > 100 µM
TGI [4]: > 100 µM
TGI [5]: > 100 µM
TGI [6]: > 100 µM
TGI [7]: > 100 µM
TGI [8]: > 100 µM
TGI [9]: > 100 µM

C=C1CC(Cn2ccc(=O)[nH]c2=O)(c2ccc(Cl)cc2)OC1=O (stereo not drawn)
TGI [1]: 32.4 µM
TGI [2]: > 100 µM
TGI [3]: 36.4 µM
TGI [4]: 49.9 µM
TGI [5]: 19 µM
TGI [6]: 30.5 µM
TGI [7]: 38.6 µM
TGI [8]: 30.9 µM
TGI [9]: 4.72 µM

O=C1CC[C@@]2(O)[C@H]3Cc4ccc(-c5ccccc5)c5c4[C@@]2(CCN3CC2CC2)[C@H]1O5
TGI [1]: 36.6 µM
TGI [2]: 37.3 µM
TGI [3]: 40.6 µM
TGI [4]: 50.1 µM
TGI [5]: 33.7 µM
TGI [6]: 35.4 µM
TGI [10]: 23.7 µM
TGI [7]: 33.6 µM
TGI [9]: 36.4 µM

O=C(/C=C(\S/C=C(/c1ccccc1)N1CCn2c(C(=O)c3ccccc3)c(C(=O)c3ccccc3)c(C(=O)c3ccccc3)c21)C(=O)c1ccccc1)c1ccccc1
TGI [2]: > 10 µM
TGI [3]: > 10 µM
TGI [5]: > 10 µM
TGI [6]: > 10 µM
TGI [7]: > 10 µM
TGI [8]: > 10 µM
TGI [9]: > 10 µM

NC1=NS(=O)(=O)Nc2nc(-c3ccccc3)[nH]c21
TGI [2]: > 100 µM
TGI [4]: > 100 µM
TGI [6]: > 100 µM
TGI [10]: > 100 µM
TGI [7]: > 100 µM
TGI [8]: > 100 µM
TGI [9]: > 100 µM

Cc1cc(=O)n2nc(CCl)sc2n1
TGI [2]: 38.2 µM
TGI [3]: 40.2 µM
TGI [4]: 34.9 µM
TGI [5]: 48 µM
TGI [6]: 28.9 µM
TGI [10]: 20.8 µM
TGI [7]: 42.9 µM
TGI [8]: 28.6 µM
TGI [9]: 23 µM

CC(C)=CCc1[nH]c2ccccc2c1C1=C(O)C(=O)C(c2c(CC=C(C)C)[nH]c3ccccc23)=C(O)C1=O
TGI [1]: 2.72 µM
TGI [2]: 5.6 µM
TGI [3]: 2.61 µM
TGI [4]: 4.6 µM
TGI [5]: 17.3 µM
TGI [6]: 8.44 µM
TGI [10]: 8.17 µM
TGI [7]: 6.5 µM
TGI [8]: 4.14 µM

CCCCCCCCCCCC[C@@H](O)[C@H]1CCC([C@H](O)CCCCC(=O)CCCCCCCC2=C[C@H](C)OC2=O)O1 (stereo partly drawn)
TGI [1]: > 50 µM
TGI [2]: > 28.8 µM
TGI [4]: > 50 µM
TGI [5]: > 50 µM
TGI [6]: > 50 µM
TGI [10]: > 30.2 µM
TGI [7]: > 50 µM
TGI [8]: > 50 µM
TGI [9]: > 50 µM

Cc1c(N=Nc2ccccc2)c(C)n(C2OC(CO)C(O)C(O)C2O)c(=S)c1C#N (stereo not drawn)
TGI [1]: 72.5 µM
TGI [2]: > 100 µM
TGI [3]: 59.6 µM
TGI [5]: > 100 µM
TGI [6]: 81.5 µM
TGI [10]: > 100 µM
TGI [7]: > 100 µM
TGI [8]: > 100 µM
TGI [9]: > 100 µM

Nc1ncn2c(n1)nc1ccccc12
TGI [1]: > 100 µM
TGI [2]: > 100 µM
TGI [4]: > 100 µM
TGI [5]: > 100 µM
TGI [6]: > 100 µM
TGI [10]: > 100 µM
TGI [7]: > 100 µM
TGI [8]: 78.9 µM
TGI [9]: > 100 µM

CC(=O)Oc1ccc2c(c1)CC[C@@H]1C2[C@@H](O[N+](=O)[O-])C[C@@]2(C)C1CC[C@@H]2O[N+](=O)[O-] (stereo partly drawn)
TGI [1]: 32.8 µM
TGI [2]: 53.6 µM
TGI [3]: 15.5 µM
TGI [5]: 33.6 µM
TGI [6]: 33.7 µM
TGI [10]: 23.7 µM
TGI [7]: 23.7 µM
TGI [8]: 28.7 µM
TGI [9]: 35.7 µM

COc1c(-c2nc3nc(N4CCN(C)CC4)ccc3[nH]2)cc(OC)c2c1nc(COC(C)=O)n2C
TGI [1]: > 100 µM
TGI [3]: > 100 µM
TGI [4]: > 100 µM
TGI [5]: > 100 µM
TGI [6]: > 100 µM
TGI [10]: > 100 µM
TGI [7]: > 100 µM
TGI [9]: 0.0263 µM
